Data on 21 compounds can be found in patent EP4745134A1 (Jiangsu Yahong Meditech Co., Ltd., priority 2023, dated 2025).

The target in one test is PRMT5-MTA (Homo sapiens, UniProt O14744). Kind of test: Enzymatic inhibitory activity against PRMT5-MTA (AlphaScreen). Format: biochemical. The method in brief: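 PRMT5/[…] (1 nM) was preincubated for 30 min at room temperature with 1 µM […] and 2.5 µM SAM, then exposed to compound (10-point, 3-fold from 1000 nM) for 15 min at 23 °C. Histone H4 substrate (5 nM) was added and reacted for 45 min at 23 °C. Symmetric dimethyl-R3 H4 was detected by AlphaScreen and IC50 calculated.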
For orientation: In Alpha technology, singlet oxygen from a donor bead excites a nearby acceptor bead.

For the next test, the system named is HCT116 MTAP KO cells. Kind of test: Inhibitory activity against cell proliferation (CellTiter Glo, 6 days), HCT116 MTAP KO. Format: cell-based. Particulars: for IC50: Homo sapiens, HCT-116, 144 h, HCT116 MTAP KO cells, 6 days, CellTiter Glo, read-out: HCT116 MTAP KO IC50; for Selectivity HCT 116-WT/ HCT116 MTAP KO: ratio of IC50 HCT116-WT / HCT116 MTAP KO. A digest of the protocol: (§1)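 Cells were seeded at 250 per well in McCoy's 5A with 10% FBS and left overnight at 37°C, 5% CO2. Compounds were added as 8-point, 4-fold dilutions from 10000 nM, with DMSO-only controls, for 6 days. IC50 values came from CellTiter Glo luminescence.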

The next test relates to HCT116-WT cells. Kind of test: Inhibitory activity against cell proliferation (CellTiter Glo, 6 days), HCT116-WT. The following applies: 144 h, HCT116-WT cells, 6 days, CellTiter Glo; read-out: HCT116-WT IC50. Type of test: cell-based. The method in brief: as §1
Background: ATP-based viability assays read luminescence as a measure of living cells.

SMILES strings stand for the structures. Like-named read-outs stand apart in the source and are kept apart here.

Chain of PRMT5-MTA (O14744 whole entry): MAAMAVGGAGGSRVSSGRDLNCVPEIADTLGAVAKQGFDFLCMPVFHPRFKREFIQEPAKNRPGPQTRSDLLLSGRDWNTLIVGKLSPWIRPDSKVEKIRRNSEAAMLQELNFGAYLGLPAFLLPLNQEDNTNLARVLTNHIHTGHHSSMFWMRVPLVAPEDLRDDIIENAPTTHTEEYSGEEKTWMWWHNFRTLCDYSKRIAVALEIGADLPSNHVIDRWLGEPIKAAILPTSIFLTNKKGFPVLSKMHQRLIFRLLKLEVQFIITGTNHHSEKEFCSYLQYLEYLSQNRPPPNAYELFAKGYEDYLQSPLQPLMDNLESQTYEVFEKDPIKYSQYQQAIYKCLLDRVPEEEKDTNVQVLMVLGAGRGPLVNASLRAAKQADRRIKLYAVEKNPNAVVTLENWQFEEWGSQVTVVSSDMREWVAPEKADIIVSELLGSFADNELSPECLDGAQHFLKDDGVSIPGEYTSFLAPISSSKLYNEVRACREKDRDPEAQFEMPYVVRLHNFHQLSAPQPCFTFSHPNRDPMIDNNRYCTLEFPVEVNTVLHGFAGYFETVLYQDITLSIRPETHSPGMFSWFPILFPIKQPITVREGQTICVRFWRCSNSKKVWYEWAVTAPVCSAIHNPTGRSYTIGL
Chain of PRMT5-MTA (Q9BQA1 whole entry partner): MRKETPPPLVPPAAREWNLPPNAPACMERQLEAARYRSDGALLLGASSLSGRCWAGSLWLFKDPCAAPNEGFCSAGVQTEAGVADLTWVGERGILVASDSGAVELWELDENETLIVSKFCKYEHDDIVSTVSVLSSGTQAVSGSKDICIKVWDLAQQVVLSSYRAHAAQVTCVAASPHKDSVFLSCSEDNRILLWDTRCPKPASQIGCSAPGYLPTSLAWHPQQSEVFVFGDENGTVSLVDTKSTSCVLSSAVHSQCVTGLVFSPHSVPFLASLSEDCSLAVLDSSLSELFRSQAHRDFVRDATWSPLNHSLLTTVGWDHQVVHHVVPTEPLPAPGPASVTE

As usually defined, the IC50 is the concentration needed to halve the response being measured. In the case of `COC1CN(C(=O)c2cc3c(cc2C)nc(N)c2cnn(C)c23)N(c2cc(F)ccc2F)C1` (stereo not drawn) [Example 445, (4-amino-1,7-dimethyl-1H-pyrazolo[4,3-c]quinolin-8-yl)(2-(2,5-difluorophenyl)-4-methoxypyrazolidin-1-yl)methanone], the IC50 at PRMT5-MTA (read-out: IC50) is 6.4 nM; in the test on HCT116 MTAP KO cells, 22 nM; with HCT116-WT cells, 548 nM. Also, in the test on HCT116 MTAP KO cells, the “Selectivity HCT 116-WT/ HCT116 MTAP KO” value was determined as 24.91.

Turning to `Cc1cc2cc(C(=O)N(Cc3ccc(-c4cccnc4)cc3F)N(C)c3ncccn3)ccc2nc1N` [Example 177, 2-amino-N-(2-fluoro-4-(pyridin-3-yl)benzyl)-N',3-dimethyl-N'-(pyrimidin-2-yl)qu inoline-6-carbohydrazide], the IC50 is 1.1 nM on PRMT5-MTA (read-out: IC50), 30 nM in the test on HCT116 MTAP KO cells and 936 nM in the test on HCT116-WT cells. The “Selectivity HCT 116-WT/ HCT116 MTAP KO” value with HCT116 MTAP KO cells amounted to 31.20.

For the compound `Cc1cc2cc(C(=O)N(Cc3ccc(C(F)(F)F)cn3)N(C)c3ncc(F)cn3)ccc2nc1N` [Example 95, 2-amino-N'-(5-fluoropyrimidin-2-yl)-N',3-dimethyl-N-((5-(trifluoromethyl)pyridin-2-yl)methyl)quinoline-6-carbohydrazide], the IC50 at PRMT5-MTA (read-out: IC50) was 2.1 nM; in the test on HCT116 MTAP KO cells it was 70 nM; in the test with HCT116-WT cells, 2460 nM. The “Selectivity HCT 116-WT/ HCT116 MTAP KO” value in the test on HCT116 MTAP KO cells came to 35.14.

As to `C=C1CN(C(=O)c2cc3c(cc2Cl)nc(N)c2cnn(C)c23)N(c2ccccc2F)C1` [Example 431, (4-amino-7-chloro-1-methyl-1H-pyrazolo [4,3-c]quinolin-8-yl)(2-(2-fluorophenyl)-4-methylenepyrazolidin-1-yl)methanone], the IC50 on PRMT5-MTA (read-out: IC50) was determined as 5.4 nM; with HCT116 MTAP KO cells, 10 nM; in the test on HCT116-WT cells it was 248 nM. The “Selectivity HCT 116-WT/ HCT116 MTAP KO” value in the test on HCT116 MTAP KO cells is 24.80.

For the compound `Cc1cc2cc(C(=O)N(Cc3ccc(-c4cnn(C5COC5)c4)cn3)N(C)c3ncccn3)ccc2nc1N` [Example 169, 2-amino-N',3-dimethyl-N-((5-(1-(oxetan-3-yl)-1H-pyrazol-4-yl)pyridin-2-yl)methyl)-N'-(pyrimidin-2-yl)quinoline-6-carbohydrazide], the IC50 stood at 2.5 nM on PRMT5-MTA (read-out: IC50), 39 nM in the test on HCT116 MTAP KO cells and 973 nM in the test on HCT116-WT cells. In addition, in the test on HCT116 MTAP KO cells, the “Selectivity HCT 116-WT/ HCT116 MTAP KO” value was found to be 24.95.

`C=C(C)c1cccnc1N(C)N(Cc1ccc(C(F)(F)F)cn1)C(=O)c1ccc2nc(N)c(C)cc2c1` [Example 135, 2-amino-N',3-dimethyl-N'-(3-(prop-1-en-2-yl)pyridin-2-yl)-N-((5-(trifluoromethyl)pyridin-2-yl)methyl)quinoline-6-carbohy drazide]: the IC50 on PRMT5-MTA (read-out: IC50) was 3.2 nM; in the test with HCT116 MTAP KO cells, 163 nM; in the test with HCT116-WT cells, 2080 nM. Besides, in the test with HCT116 MTAP KO cells, the “Selectivity HCT 116-WT/ HCT116 MTAP KO” value is recorded as 12.75.

`CC1CN(C(=O)c2cc3c(cc2F)nc(N)c2cnn(C)c23)N(c2ncccc2F)C1` (single isomer, unassigned) [Example 466]: the figures for the IC50 on PRMT5-MTA (read-out: IC50), in the test with HCT116 MTAP KO cells and in the test on HCT116-WT cells were 4.4 nM, 13 nM and 660 nM, respectively. Moreover, in the test with HCT116 MTAP KO cells, the “Selectivity HCT 116-WT/ HCT116 MTAP KO” value is 50.77.

Regarding `C=Cc1cccnc1N(C)N(Cc1ccc(C(F)(F)F)cn1)C(=O)c1ccc2nc(N)c(C)cc2c1` [Example 133, 2-amino-N',3-dimethyl-N-((5-(trifluoromethyl)pyridin-2-yl)methyl)-N'-(3-vinylpyridin-2-yl)quinoline-6-carbohydrazide], the values for the IC50 on PRMT5-MTA (read-out: IC50), with HCT116 MTAP KO cells and with HCT116-WT cells were 3.6 nM, 312 nM and 3400 nM, respectively. Also, the “Selectivity HCT 116-WT/ HCT116 MTAP KO” value in the test on HCT116 MTAP KO cells was 10.89.

On to `Cn1ncc2c(N)nc3cc(Cl)c(C(=O)N4CC5(CN4c4ncccc4F)CC(F)(F)C5)cc3c21` [Example 411, (4-amino-7-chloro-1-methyl-1H-pyrazolo [4,3-c]quinolin-8-yl)(2,2-difluoro-7-(3-fluoropyridin-2-yl)-6,7-diazaspiro[3.4]octan-6-yl)methanone], for which the IC50 on PRMT5-MTA (read-out: IC50) is 6.3 nM; with HCT116 MTAP KO cells, 15 nM; in the test on HCT116-WT cells, 221 nM. Also, the “Selectivity HCT 116-WT/ HCT116 MTAP KO” value with HCT116 MTAP KO cells was 14.73.

Take `COC(C)(C)C#Cc1cnc(N2CC(C)CN2C(=O)c2cc3c(cc2C)nc(N)c2cnn(C)c23)c(F)c1` (stereo not drawn) [Example 491, (4-amino-1,7-dimethyl-1H-pyrazolo[4,3-c]quinolin-8-yl)(2-(3-fluoro-5-(3-methoxy-3-methylbut-1-yn-1-yl)pyridin-2-yl)-4-methylpyrazolidin-1-yl)methanone]: the IC50 came to 8.6 nM at PRMT5-MTA (read-out: IC50), 189 nM with HCT116 MTAP KO cells and 2230 nM in the test on HCT116-WT cells. The “Selectivity HCT 116-WT/ HCT116 MTAP KO” value in the test on HCT116 MTAP KO cells was 11.81.

`COC1CN(C(=O)c2cc3c(cc2C)nc(N)c2cnn(C)c23)N(c2ncccc2F)C1` (stereo not drawn) [Example 417, (4-amino-1,7-dimethyl-1H-pyrazolo[4,3-c]quinolin-8-yl)(2-(3-fluoropyridin-2-yl)-4-methoxypyrazolidin-1-yl)methanone]: the values for the IC50 at PRMT5-MTA (read-out: IC50), with HCT116 MTAP KO cells and with HCT116-WT cells were 3.8 nM, 20 nM and 790 nM, respectively. The “Selectivity HCT 116-WT/ HCT116 MTAP KO” value with HCT116 MTAP KO cells came out at 39.50.

Take `Cc1cc2nc(N)c3cnn(C)c3c2cc1C(=O)N1CCCN1c1ccc(C2CC2)cn1` [Example 468, (4-amino-1,7-dimethyl-1H-pyrazolo[4,3-c]quinolin-8-yl)(2-(5-cyclopropylpyridin-2-yl)pyrazolidin-1-yl)methanone]: the IC50 on PRMT5-MTA (read-out: IC50) worked out at 3.2 nM; in the test on HCT116 MTAP KO cells it was 180 nM; in the test on HCT116-WT cells it was 4340 nM. The “Selectivity HCT 116-WT/ HCT116 MTAP KO” value with HCT116 MTAP KO cells is recorded as 24.09.

As to `COc1cccc(N2CC(C)CN2C(=O)c2cc3c(cc2C)nc(N)c2cnn(C)c23)n1` (stereo not drawn) [Example 406], the values for the IC50 at PRMT5-MTA, in the test with HCT116 MTAP KO cells and with HCT116-WT cells were 4.3 nM, 23 nM and 906 nM, respectively. Further, the “Selectivity HCT 116-WT/ HCT116 MTAP KO” value in the test on HCT116 MTAP KO cells was found to be 39.39.

With `Cc1cc2cc(C(=O)N(Cc3ccc(C(F)(F)F)cn3)N(C)c3ncccc3C(F)(F)F)ccc2nc1N` [Example 53, 2-amino-N',3-dimethyl-N'-(3-(trifluoromethyl)pyridin-2-yl)-N-((5-(trifluoromethy 1)pyridin-2-yl)methyl)quinoline-6-carbohydrazide], the concentration for half-maximal inhibition (IC50) at PRMT5-MTA (read-out: IC50) came to 1.5 nM; with HCT116 MTAP KO cells, 90 nM; with HCT116-WT cells, 2280 nM. In addition, the “Selectivity HCT 116-WT/ HCT116 MTAP KO” value with HCT116 MTAP KO cells is 25.34.

Consider `CC1CN(C(=O)c2cc3c(cc2Cl)nc(N)c2cnn(C)c23)N(c2ccccc2F)C1` (stereo not drawn) [Example 386, (4-amino-7-chloro-1-methyl-1H-pyrazolo [4,3-c]quinolin-8-yl)(2-(2-fluorophenyl)-4-methylpyrazolidin-1-yl)methanone], for which the IC50 at PRMT5-MTA (read-out: IC50) was 6.2 nM; with HCT116 MTAP KO cells it was 13 nM; in the test on HCT116-WT cells, 336 nM. In addition, the “Selectivity HCT 116-WT/ HCT116 MTAP KO” value in the test on HCT116 MTAP KO cells came out at 25.85.

For the compound `Cc1ncc(-c2ccc(CN(C(=O)c3ccc4nc(N)c(C)cc4c3)N(C)c3ncccn3)nc2)cn1` [Example 180, 2-amino-N',3-dimethyl-N-((5-(2-methylpyrimidin-5-yl)pyridin-2-yl)methyl)-N'-(pyrimidin-2-yl)quinoline-6-carbohydrazide], the IC50 at PRMT5-MTA (read-out: IC50) is 3.2 nM; in the test on HCT116 MTAP KO cells, 41 nM; with HCT116-WT cells it was 1880 nM. The “Selectivity HCT 116-WT/ HCT116 MTAP KO” value in the test with HCT116 MTAP KO cells was determined as 45.73.

For the compound `Cc1cc2nc(N)c3cnn(C)c3c2cc1C(=O)N1CC(C)CN1c1ccccc1` (stereo not drawn) [Example 396, (4-amino-1,7-dimethyl-1H-pyrazolo[4,3-c]quinolin-8-yl)(4-methyl-2-phenylpyrazolidin-1-yl)methanone], the figures for the IC50 at PRMT5-MTA (read-out: IC50), in the test on HCT116 MTAP KO cells and with HCT116-WT cells were 5.2 nM, 298 nM and 4830 nM, respectively. In addition, the “Selectivity HCT 116-WT/ HCT116 MTAP KO” value in the test on HCT116 MTAP KO cells is reported as 16.21.

For `Cc1cc2nc(N)c3ccncc3c2cc1C(=O)N1CC(C)CN1c1ncccc1F` (stereo not drawn) [Example 502, (5-amino-8-methylbenzo[C] [2,6]naphthyridin-9-yl)(2-(3-fluoropyridin-2-yl)-4-methylpyrazolidin-1-yl)methanone], the IC50 came to 5.2 nM at PRMT5-MTA (read-out: IC50), 140 nM in the test on HCT116 MTAP KO cells and 1510 nM in the test on HCT116-WT cells. Further, the “Selectivity HCT 116-WT/ HCT116 MTAP KO” value in the test on HCT116 MTAP KO cells was 10.79.

On to `Cc1cc2cc(C(=O)N(Cc3ccc(C(F)(F)F)cn3)N(C)c3c(F)ccc4nccnc34)ccc2nc1N` [Example 125, 2-amino-N'-(6-fluoroquinoxalin-5-yl)-N',3-dimethyl-N-((5-(trifluoromethyl)pyridin-2-yl)methyl)quinoline-6-carbohydrazide], for which the IC50 stood at 1.7 nM on PRMT5-MTA (read-out: IC50), 84 nM in the test with HCT116 MTAP KO cells and 2310 nM in the test with HCT116-WT cells. In the test on HCT116 MTAP KO cells, the “Selectivity HCT 116-WT/ HCT116 MTAP KO” value was found to be 27.54.

`Cc1cc2nc(N)c3cnn(C)c3c2cc1C(=O)N1CCCN1c1ncccc1F` [Example 342, (4-amino-1,7-dimethyl-1H-pyrazolo[4,3-c]quinolin-8-yl)(2-(3-fluoropyridin-2-yl)pyrazolidin-1-yl)methanone]: the IC50 amounted to 3.8 nM at PRMT5-MTA (read-out: IC50), 100 nM in the test with HCT116 MTAP KO cells and 6800 nM in the test with HCT116-WT cells. The “Selectivity HCT 116-WT/ HCT116 MTAP KO” value with HCT116 MTAP KO cells worked out at 67.95.

On to `Cc1cc2cc(C(=O)N(Cc3ccc(-c4cc[nH]n4)cn3)N(C)c3ncccn3)ccc2nc1N` [Example 142, N-((5-(1H-pyrazol-3-yl)pyridin-2-yl)methyl)-2-amino-N',3-dimethyl-N'-(pyrimidin-2-yl)quinoline-6-carbohydrazide], for which the IC50 at PRMT5-MTA (read-out: IC50) was found to be 4.1 nM; with HCT116 MTAP KO cells it was 201 nM; with HCT116-WT cells, 3910 nM. For the same compound, in the test on HCT116 MTAP KO cells, the “Selectivity HCT 116-WT/ HCT116 MTAP KO” value is recorded as 19.43.
